Values joined by “and” are separate entries in the source; they are usually repeats but may differ in a detail not shown here. Equal entries are not always repeated. “Also recorded” adds a separate entry of the source. Structures can show the parent of a compound that is named as a salt.
Tests used:
[1] = system: fibromyalgia patients; details: cited from earlier work
[2] = system: patients who met the 1990 ACR criteria for fibromyalgia syndrome; experiment: Multi-center double-blind, randomized, placebo-controlled study of milnacipran for the treatment of fibromyalgia (Example 1); format: in vivo, human; details: for Responders for the treatment of the pain of fibromyalgia (% = m/n): observed cases (OC), intent-to-treat
Method: The primary outcome was a composite responder analysis assessing response rate at weeks 14 and 15, and the secondary analysis assessed response rate at weeks 26 and 27.
This was a multi-center, randomized, double-blinded, placebo-controlled three-arm study, which enrolled 888 patients who met the 1990 ACR criteria for fibromyalgia syndrome as well as the more detailed admission criteria outlined in the protocol.
Patients recorded baseline symptoms for the first two weeks after washing off anti-depressants, benzodiazepines, and certain other drugs that could potentially interfere with efficacy measurements.
All randomized medications (placebo and milnacipran) were administered in a split-dose (BID) fashion. The doses were administered in a dose escalation regimen as outlined below:
d. FMS Status Assessments: Patient pain 24 hour and 7 day recall VAS, the SF-36, Multiple Ability Self-report Questionnaire (MASQ, cognitive function), the Multidimensional Health Assessment Questionnaire (MDHAQ) and the Multidimensional Fatigue Inventory (MFI). Diary assessments include current pain (morning, random daily, and evening reports); daily recall pain (morning report); medications taken (evening report); overall pain past week (weekly report), overall fatigue in the last week (weekly report), and the extent that pain kept the patient from caring for themselves (weekly report).
The SF-36 is a multi-purpose, short-form health survey. It yields an 8-scale profile of functional health and well-being scores, psychometrically-based physical and mental health summary measures, and a preference-based health utility index (Ware J E, Snow K K, Kosinski M, Gandek B. SF-36® Health Survey Manual and Interpretation Guide. Boston, Mass.: New England Medical Center, The Health Institute, 1993). […] The SF-36 has proven useful in surveys of general and specific populations, comparing the relative burden of diseases, and in differentiating the health benefits produced by a wide range of different treatments.
The primary endpoint of this study was a composite responder analysis implementing analysis of three domains of interest, evaluated at […]. The domains measured were:
For the primary analysis, the pain domain score was determined by a calculation that compared the average of treatment weeks 14 and 15 to the two baseline weeks, and treatment weeks 26 and 27 vs. baseline for the secondary analysis. The last observation was carried forward if neither the week 14 nor week 15 (or week 26/27) patient self-reported pain score is available to compare to the baseline value.
A responder was defined as a subject who experienced a greater than 30% reduction in pain from baseline and improvement on the PGIC.
See Table 1 for a summary of the results in the Intent-to-Treat Population and Table 2 for a summary of the Last Observation Carried Forward (LOCF), Baseline Observation Carried Forward (BOCF) and study completer (OC) populations. LOCF is an analysis in which observations are carried forward to the last time point for patients who dropped out. The LOCF analysis treats the carried-forward data as observed data at the last time point. BOCF is an analysis that requires the patient remain active in the trial to be evaluated for response. If a patient withdraws from the trial for any reason they are classed as a non-responder irregardless of their pain and global scores at the time of withdrawal.

[3] = both milnacipran treatment groups (BID and QD), up to 200 mg/day

## CCN(CC)C(=O)C1(c2ccccc2)CC1CN (racemic) [milnacipran, Z-2-aminomethyl-1-phenyl-N, N-diethylcyclopropanecarboxamide hydrochloride]
[1]; 100 mg BID
  Therapy for the symptom of pain in FMS: effective acute (short-term) therapy
[1]; [3]
  PGIC: completers who reported an improvement in their overall status: over 70%
  PGIC: completers who reported worsening: 10%
[1]; milnacipran-treated patients
  Deaths or serious adverse events associated with treatment: no deaths or serious adverse events
  Patients in whom elevation in hepatic enzymes resulted in adverse events: 2%
[1]; twice-daily (BID) vs once-daily (QD) dosing
  Effect on fatigue, mood, global wellness, and function, BID vs QD dosing: approximately equally effective
[1]; twice-daily vs QD dosing
  Treating pain, BID vs QD dosing: more effective in treating pain than QD dosing
[2]; 100 mg/day vs placebo
  Treatment of fatigue associated with FMS (MFI total score / MFI physical fatigue), comparison with placebo: superior to placebo
[2]; 100 mg/day, treatment week 3
  SF-36 Physical Function: 6.31
[2]; 100 mg/day, treatment week 7
  SF-36 Physical Function: 6.62
[2]; 100 mg/day, treatment week 11
  SF-36 Physical Function: 7.70
[2]; 100 mg/day, treatment week 15
  SF-36 Physical Function: 7.70
[2]; 100 mg/day, treatment week 19
  SF-36 Physical Function: 7.71
[2]; 100 mg/day, treatment week 23
  SF-36 Physical Function: 7.07
[2]; 100 mg/day, treatment week 27
  SF-36 Physical Function: 7.11
[2]; 100 mg/day, treatment weeks 14-15 (3 month), hydrochloride
  Responders for the treatment of the pain of fibromyalgia (% = m/n): 53.33% and 53.3%
[2]; 100 mg/day, treatment weeks 14-15 (3 month), listed as Milnacipran, hydrochloride
  Responders for the treatment of the pain of fibromyalgia (% = m/n): 72 (53.33) %
[2]; 100 mg/day, treatment weeks 26-27 (6 month), hydrochloride
  Responders for the treatment of the pain of fibromyalgia (% = m/n): 49.59% and 49.6%
[2]; 100 mg/day, treatment weeks 26-27 (6 month), listed as Milnacipran, hydrochloride
  Responders for the treatment of the pain of fibromyalgia (% = m/n): 60 (49.59) %
[2]; 100 mg, 3 month
  Individual component responder rate, PGIC (LOCF): 54.0%
  Individual component responder rate, Pain (LOCF): 35.7%
  Pain composite responder rate, Primary Analysis (LOCF): 33.5%
  Pain composite responder rate, Sensitivity Analysis I (BOCF): 32.1%
  Pain composite responder rate, Sensitivity Analysis II: 32.%
  Pain composite responder rate, Sensitivity Analysis III: 32.1%
[2]; 100 mg, 6 month
  Individual component responder rate, PGIC (LOCF): 49.6%
  Individual component responder rate, Pain (LOCF): 35.7%
  Pain composite responder rate, Primary Analysis (LOCF): 30.8%
  Pain composite responder rate, Sensitivity Analysis I (BOCF): 26.8%
  Pain composite responder rate, Sensitivity Analysis II: 27.2%
  Pain composite responder rate, Sensitivity Analysis III: 29.5%
[2]; 100 mg, treatment week 3
  MFI (change from baseline) Physical fatigue (range 4 to 20): −0.99
  MFI (change from baseline) Total score (range 20 to 100): −3.68
[2]; 100 mg, treatment week 7
  MFI (change from baseline) Physical fatigue (range 4 to 20): −1.23
  MFI (change from baseline) Total score (range 20 to 100): −4.32
[2]; 100 mg, treatment week 11
  MFI (change from baseline) Physical fatigue (range 4 to 20): −1.46
  MFI (change from baseline) Total score (range 20 to 100): −5.16
[2]; 100 mg, treatment week 15
  MFI (change from baseline) Physical fatigue (range 4 to 20): −1.29
  MFI (change from baseline) Total score (range 20 to 100): −5.15
[2]; 100 mg, treatment week 19
  MFI (change from baseline) Physical fatigue (range 4 to 20): −1.34
  MFI (change from baseline) Total score (range 20 to 100): −4.97
[2]; 100 mg, treatment week 23
  MFI (change from baseline) Physical fatigue (range 4 to 20): −1.23
  MFI (change from baseline) Total score (range 20 to 100): −4.44
[2]; 100 mg, treatment week 27
  MFI (change from baseline) Physical fatigue (range 4 to 20): −1.37
  MFI (change from baseline) Total score (range 20 to 100): −5.00
[2]; 200 mg/day (high dose) vs 100 mg/day, hydrochloride
  Treatment of fatigue associated with FMS (MFI), comparison of doses: superior to milnacipran 100 mg/day; also recorded: significantly more effective treatment
[2]; 200 mg/day vs placebo
  Treatment of fatigue associated with FMS (MFI total score / MFI physical fatigue), comparison with placebo: superior to placebo
[2]; 200 mg/day, treatment week 3
  SF-36 Physical Function: 7.44
[2]; 200 mg/day, treatment week 7
  SF-36 Physical Function: 8.80
[2]; 200 mg/day, treatment week 11
  SF-36 Physical Function: 8.46
[2]; 200 mg/day, treatment week 15
  SF-36 Physical Function: 8.44
[2]; 200 mg/day, treatment week 19
  SF-36 Physical Function: 8.37
[2]; 200 mg/day, treatment week 23
  SF-36 Physical Function: 7.85
[2]; 200 mg/day, treatment week 27
  SF-36 Physical Function: 7.95
[2]; 200 mg/day, treatment weeks 14-15 (3 month), hydrochloride
  Responders for the treatment of the pain of fibromyalgia (% = m/n): 55.0%
[2]; 200 mg/day, treatment weeks 14-15 (3 month), listed as Milnacipran, hydrochloride
  Responders for the treatment of the pain of fibromyalgia (% = m/n): 143 (55.00) %
[2]; 200 mg/day, treatment weeks 26-27 (6 month), hydrochloride
  Responders for the treatment of the pain of fibromyalgia (% = m/n): 51.74% and 51.7%
[2]; 200 mg/day, treatment weeks 26-27 (6 month), listed as Milnacipran, hydrochloride
  Responders for the treatment of the pain of fibromyalgia (% = m/n): 119 (51.74) %
[2]; 200 mg, 3 month
  Individual component responder rate, PGIC (LOCF): 50.6%
  Individual component responder rate, Pain (LOCF): 38.3%
  Pain composite responder rate, Primary Analysis (LOCF): 34.9%
  Pain composite responder rate, Sensitivity Analysis I (BOCF): 32.4%
  Pain composite responder rate, Sensitivity Analysis II: 32.7%
  Pain composite responder rate, Sensitivity Analysis III: 32.4%
[2]; 200 mg, 6 month
  Individual component responder rate, PGIC (LOCF): 49.9%
  Individual component responder rate, Pain (LOCF): 35.4%
  Pain composite responder rate, Primary Analysis (LOCF): 32.2%
  Pain composite responder rate, Sensitivity Analysis I (BOCF): 27.0%
  Pain composite responder rate, Sensitivity Analysis II: 28.6%
  Pain composite responder rate, Sensitivity Analysis III: 29.9%
[2]; 200 mg, treatment week 3
  MFI (change from baseline) Physical fatigue (range 4 to 20): −1.20
  MFI (change from baseline) Total score (range 20 to 100): −4.58
[2]; 200 mg, treatment week 7
  MFI (change from baseline) Physical fatigue (range 4 to 20): −1.56
  MFI (change from baseline) Total score (range 20 to 100): −5.92
[2]; 200 mg, treatment week 11
  MFI (change from baseline) Physical fatigue (range 4 to 20): −1.54
  MFI (change from baseline) Total score (range 20 to 100): −5.67
[2]; 200 mg, treatment week 15
  MFI (change from baseline) Physical fatigue (range 4 to 20): −1.50
  MFI (change from baseline) Total score (range 20 to 100): −5.62
[2]; 200 mg, treatment week 19
  MFI (change from baseline) Physical fatigue (range 4 to 20): −1.54
  MFI (change from baseline) Total score (range 20 to 100): −5.67
[2]; 200 mg, treatment week 23
  MFI (change from baseline) Physical fatigue (range 4 to 20): −1.44
  MFI (change from baseline) Total score (range 20 to 100): −4.94
[2]; 200 mg, treatment week 27
  MFI (change from baseline) Physical fatigue (range 4 to 20): −1.49
  MFI (change from baseline) Total score (range 20 to 100): −5.80
[2]; continued administration (daily for at least three months)
  Relief from fibromyalgia and its symptoms: long-term (at least three months) relief
[2]; low dose (100 mg/day) vs high dose (200 mg/day), continued administration
  Long-term treatment of fibromyalgia and some of its symptoms, comparison of doses: almost as effective as

Reference: patent US20100081719A1 (priority 2006, published 2010)
